ChEMBL document CHEMBL4190255, “Novel celastrol derivatives with improved selectivity and enhanced antitumour activity: Design, synthesis and biological evaluation” (Eur J Med Chem, 2017)
Blank lines part the entries; values can stand above or below the molecule they belong to. Active and inactive are the calls of the source. No cut-off for these calls is given here.

Legend:
[1] = system: A549; test: Antiproliferative activity against human A549 cells after 72 hrs by MTT assay; format: functional, cell-based; conditions: A549, 72 h
[2] = system: MIA PaCa-2; test: Antiproliferative activity against human MIAPaCa2 cells after 72 hrs by MTT assay; format: functional, cell-based; conditions: MIA PaCa-2, 72 h
[3] = system: SK-BR-3; test: Antiproliferative activity against human SKBR3 cells after 72 hrs by MTT assay; format: functional, cell-based; conditions: SK-BR-3, 72 h
[4] = Selectivity index, ratio of IC50 for human BJ cells to IC50 for human A549 cells; format: toxicity; conditions: BJ cells versus A549 cells, read-out: Ratio IC50
[5] = Selectivity index, ratio of IC50 for human BJ cells to IC50 for human MIAPaCa2 cells; format: toxicity; conditions: BJ cells versus MIAPaCa2 cells, read-out: Ratio IC50
[6] = Selectivity index, ratio of IC50 for human BJ cells to IC50 for human SKOV3 cells; format: toxicity; conditions: BJ cells versus SKOV3 cells, read-out: Ratio IC50
[7] = system: SK-OV-3; test: Induction of apoptosis in human SKOV3 cells at IC50 concentration after 24 hrs by Annexin V-FITC/propidium iodide double staining based flow cytometry; format: functional, cell-based
[8] = system: BJ; test: Cytotoxicity against human BJ cells assessed as reduction in cell viability after 72 hrs by MTT assay; format: cell-based
[9] = system: SK-OV-3; test: Antiproliferative activity against human SKOV3 cells after 72 hrs by MTT assay; format: functional, cell-based; conditions: SK-OV-3, 72 h
[10] = system: MDA-MB-231; test: Antiproliferative activity against human MDA-MB-231 cells after 72 hrs by MTT assay; format: functional, cell-based; conditions: MDA-MB-231, 72 h
[11] = system: SK-OV-3; test: Cell cycle arrest in human SKOV3 cells assessed as accumulation at G0/G1 phase at IC50 concentration after 24 to 72 hrs by propidium iodide-based flow cytometry; format: functional
[12] = system: SK-OV-3; test: Cell cycle arrest in human SKOV3 cells assessed as accumulation at S phase at IC50 concentration after 24 to 72 hrs by propidium iodide-based flow cytometry; format: functional
[13] = system: SK-OV-3; test: Cell cycle arrest in human SKOV3 cells assessed as accumulation at G2/M phase at IC50 concentration after 24 to 72 hrs by propidium iodide-based flow cytometry; format: functional
[14] = system: SK-OV-3; test: Induction of apoptosis in human SKOV3 cells assessed as early apoptotic cells at IC50 concentration after 48 hrs by Annexin V-FITC/propidium iodide double staining based flow cytometry (reference value: 4.5%); format: functional
[15] = system: SK-OV-3; test: Induction of apoptosis in human SKOV3 cells assessed as early apoptotic cells at IC50 concentration after 72 hrs by Annexin V-FITC/propidium iodide double staining based flow cytometry (reference value: 4.7%); format: functional
[16] = system: SK-OV-3; test: Induction of apoptosis in human SKOV3 cells at IC50 concentration by Annexin V-FITC/propidium iodide double staining based flow cytometry; format: functional, cell-based; conditions: TDE = time-dependent effect
[17] = system: SK-OV-3; test: Induction of apoptosis in human SKOV3 cells assessed as cell shrinkage at IC50 concentration after 48 hrs by Hoechst 33342 staining-based fluorescence microscopy; format: functional
[18] = system: SK-OV-3; test: Induction of apoptosis in human SKOV3 cells assessed as chromatin condensation at IC50 concentration after 48 hrs by Hoechst 33342 staining-based fluorescence microscopy; format: functional, cell-based
[19] = system: SK-OV-3; test: Induction of apoptosis in human SKOV3 cells assessed as formation of apoptotic bodies at IC50 concentration after 48 hrs by Hoechst 33342 staining-based fluorescence microscopy; format: functional, cell-based
[20] = system: SK-OV-3; test: Induction of apoptosis in human SKOV3 cells assessed as reduction in cell density at IC50 concentration after 48 hrs by Hoechst 33342 staining-based fluorescence microscopy; format: functional
[21] = system: SK-OV-3; test: Induction of apoptosis in human SKOV3 assessed as decrease in procaspase-8 levels at IC50 concentration after 72 hrs by Western blot analysis; format: functional, cell-based
[22] = system: SK-OV-3; test: Induction of apoptosis in human SKOV3 assessed as increase in cleaved caspase-8 levels at IC50 concentration after 72 hrs by Western blot analysis; format: functional, cell-based
[23] = system: SK-OV-3; test: Induction of apoptosis in human SKOV3 assessed as decrease in procaspase-3 levels at IC50 concentration after 72 hrs by Western blot analysis; format: functional, cell-based
[24] = system: SK-OV-3; test: Induction of apoptosis in human SKOV3 assessed as increase in cleaved PARP levels at IC50 concentration after 72 hrs by Western blot analysis; format: functional, cell-based
[25] = system: SK-OV-3; test: Induction of apoptosis in human SKOV3 assessed as effect on bid levels at IC50 concentration after 72 hrs by Western blot analysis; format: functional, cell-based
[26] = system: SK-OV-3; test: Induction of apoptosis in human SKOV3 assessed as effect on t-bid levels at IC50 concentration after 72 hrs by Western blot analysis; format: functional, cell-based
[27] = system: SK-OV-3; test: Induction of apoptosis in human SKOV3 assessed as effect on bcl2 levels at IC50 concentration after 72 hrs by Western blot analysis; format: functional, cell-based
[28] = system: SK-OV-3; test: Induction of apoptosis in human SKOV3 assessed as effect on bax levels at IC50 concentration after 72 hrs by Western blot analysis; format: functional, cell-based
[29] = system: SK-OV-3; test: Induction of apoptosis in human SKOV3 assessed as effect on caspase-9 levels at IC50 concentration after 72 hrs by Western blot analysis; format: functional, cell-based
[30] = system: SK-OV-3; test: Induction of apoptosis in human SKOV3 cells assessed as reduction in mutant p53 levels at IC50 concentration after 72 hrs by Western blot analysis; format: functional, cell-based
[31] = system: A549; test: Effect on wild-type p53 expression in human A549 cells at IC50 concentration after 72 hrs by Western blot analysis; format: ADME, cell-based; conditions: a549, 72 h
[32] = biological target: T1, Heat shock protein HSP90 (Homo sapiens) (UniProt P07900+P08238); test: Inhibition of HSP90 protein levels in human SKOV3 cells at IC50 concentration after 72 hrs by Western blot analysis; format: cell-based
[33] = biological target: T1, Heat shock protein HSP90 (Homo sapiens); test: Inhibition of HSP90 in human SKOV3 cells assessed as decrease in phosphorylated Akt levels at IC50 concentration after 72 hrs by Western blot analysis; format: cell-based
[34] = system: SK-OV-3; test: Effect on total Akt levels in human SKOV3 cells at IC50 concentration after 72 hrs by Western blot analysis; format: ADME, cell-based; conditions: sk-ov-3, 72 h
[35] = biological target: T1, Heat shock protein HSP90 (Homo sapiens); test: Inhibition of HSP90 in human SKOV3 cells assessed as decrease in phosphorylated mTOR levels at IC50 concentration after 72 hrs by Western blot analysis; format: cell-based
[36] = system: SK-OV-3; test: Effect on total mTOR levels in human SKOV3 cells at IC50 concentration after 72 hrs by Western blot analysis; format: ADME, cell-based; conditions: sk-ov-3, 72 h
[37] = system: SK-OV-3; test: Potentiation of cisplatin-induced cytotoxicity in human SKOV3 cells assessed as combination index by measuring reduction in cell viability at 0.15 uM after 72 hrs by MTT assay; format: functional
[38] = system: SK-OV-3; test: Potentiation of cisplatin-induced cytotoxicity in human SKOV3 cells assessed as combination index by measuring reduction in cell viability at 0.3 uM after 72 hrs by MTT assay; format: functional
[39] = system: SK-OV-3; test: Potentiation of cisplatin-induced cytotoxicity in human SKOV3 cells assessed as combination index by measuring reduction in cell viability at 0.6 uM after 72 hrs by MTT assay; format: functional
[40] = system: SK-OV-3; test: Potentiation of cisplatin-induced cytotoxicity in human SKOV3 cells assessed as combination index by measuring reduction in cell viability at 1.2 uM after 72 hrs by MTT assay; format: functional
[41] = system: SK-OV-3; test: Potentiation of cisplatin-induced cytotoxicity in human SKOV3 cells assessed as combination index by measuring reduction in cell viability at 2.4 uM after 72 hrs by MTT assay; format: functional
[42] = system: SK-OV-3; test: Potentiation of cisplatin-induced cytotoxicity in human SKOV3 cells assessed as combination index by measuring reduction in cell viability at 4.8 uM after 72 hrs by MTT assay; format: functional

SMILES: Cc1c(O)c(O)cc2c1C(=O)C=C1[C@@]2(C)CC[C@@]2(C)[C@@H]3C[C@](C)(C(=O)O)CC[C@]3(C)CC[C@]12C
IC50 [1]: > 15000 nM
IC50 [2]: > 5000 nM

SMILES: CC1=C(O)C(=O)C=C2C1=CC=C1[C@@]2(C)CC[C@@]2(C)[C@@H]3C[C@](C)(C(=O)O)CC[C@]3(C)CC[C@]12C [CELASTROL]
IC50 [3]: 720 nM
selectivity ratio [4]: 1.75
selectivity ratio [5]: 5.97
selectivity ratio [6]: 2.34

SMILES: CNC(=O)N[C@]1(C)CC[C@]2(C)CC[C@]3(C)C4=CC(=O)c5c(cc(OC)c(OC)c5C)[C@]4(C)CC[C@@]3(C)[C@@H]2C1
IC50 [1]: > 15000 nM
IC50 [2]: > 5000 nM

SMILES: CC1=C(O)C(=O)C=C2C1=CC=C1[C@@]2(C)CC[C@@]2(C)[C@@H]3C[C@](C)(NC(N)=O)CC[C@]3(C)CC[C@]12C
IC50 [1]: 2480 nM
IC50 [2]: 630 nM

SMILES: Cc1c(O)c(O)cc2c1C(=O)C=C1[C@@]2(C)CC[C@@]2(C)[C@@H]3C[C@](C)(NC(N)=O)CC[C@]3(C)CC[C@]12C
IC50 [1]: > 15000 nM
IC50 [2]: > 5000 nM

SMILES: CNC(=O)N[C@]1(C)CC[C@]2(C)CC[C@]3(C)C4=CC=C5C(=CC(=O)C(O)=C5C)[C@]4(C)CC[C@@]3(C)[C@@H]2C1
IC50 [8]: 1960 nM
IC50 [1]: 1450 nM
IC50 [2]: 410 nM
selectivity ratio [4]: 1.36
selectivity ratio [5]: 4.72

Continued, in another order:

IC50 [1]: 1270 nM
IC50 [2]: 350 nM
IC50 [9]: 560 nM
IC50 [3]: 780 nM
IC50 [10]: 1150 nM
inhibition [32]: Active
inhibition [33]: Active
inhibition [35]: Active
SMILES: CC1=C(O)C(=O)C=C2C1=CC=C1[C@@]2(C)CC[C@@]2(C)[C@@H]3C[C@](C)(NC(=O)NCCc4cccc(Cl)c4)CC[C@]3(C)CC[C@]12C
Activity [7]: inactive
IC50 [8]: 3290 nM
selectivity ratio [4]: 2.59
selectivity ratio [5]: 9.31
selectivity ratio [6]: 5.81
Activity [11]: inactive
Activity [12]: inactive
Activity [13]: inactive
Activity [14]: 15%
Activity [15]: 31.8%
Activity [16]: Tde
Activity [17]: Active
Activity [18]: Active
Activity [19]: Active
Activity [20]: Active
Activity [21]: Active
Activity [22]: Active
Activity [23]: Active
Activity [24]: Active
Activity [25]: inactive
Activity [26]: inactive
Activity [27]: inactive
Activity [28]: inactive
Activity [29]: inactive
Activity [30]: Active
Activity [31]: Non-Toxic
Activity [34]: Non-Toxic
Activity [36]: Non-Toxic
CI [37]: 1.047
CI [38]: 1.374
CI [39]: 1.44
CI [40]: 0.6855
CI [41]: 0.575
CI [42]: 0.7102

IC50 [1]: 1440 nM
IC50 [2]: 310 nM
SMILES: CCCCNC(=O)N[C@]1(C)CC[C@]2(C)CC[C@]3(C)C4=CC=C5C(=CC(=O)C(O)=C5C)[C@]4(C)CC[C@@]3(C)[C@@H]2C1
IC50 [8]: 2120 nM
selectivity ratio [4]: 1.48
selectivity ratio [5]: 6.94

IC50 [1]: 2270 nM
IC50 [2]: 400 nM
SMILES: CC1=C(O)C(=O)C=C2C1=CC=C1[C@@]2(C)CC[C@@]2(C)[C@@H]3C[C@](C)(NC(=O)Nc4ccccc4)CC[C@]3(C)CC[C@]12C

IC50 [1]: 1660 nM
IC50 [2]: 410 nM
SMILES: CC1=C(O)C(=O)C=C2C1=CC=C1[C@@]2(C)CC[C@@]2(C)[C@@H]3C[C@](C)(NC(=O)NCCc4ccccc4)CC[C@]3(C)CC[C@]12C
